In patent US20240391931A1 (Bristol-Myers Squibb Company, priority 2021, published 2024):

Experiments:
[1] = target: T1, HER2 WT (Homo sapiens, UniProt P04626); experiment: Enzymatic assay HER2 WT (method a); assay type: biochemical; settings: [HER2 WT]=12.5 nM, [ATP]=25 μM, [Peptide 22]=1 μM
T1 construct: purchased ProQinase, Freiburg, Germany ERBB2 0108-0000-1
Description: (§1) A 2× stock solution of HER2 WT (ERBB2 0108-0000-1; ProQinase, Freiburg, Germany) corresponding to method a, was prepared as described below. Alternatively, a 2× stock solution of HER2YVMA (custom purification; Viva biotech, Shanghai, China) corresponding to method b, was prepared as described below. For method c, a 2× stock of EGFR (ERBB1 PR7295B, Thermo Fisher, Carlsbad, CA) was prepared as described below. All 2× solutions were prepared in buffer containing 50 mM HEPES, pH 7.5, 10 mM MnCl2, MgCl2, 0.005% Tween 20, 1 mM TCEP. 25 ul of 2× enzyme solution was added to a Seahorse low volume 384-well polypropylene assay plate (201288-100, Seahorse Bioscience, Chicopee, MA) containing 1 μl of compound serially diluted in 50% DMSO. To initiate the reaction, 25 μl of solution containing 2× final concentration of ATP and ProfilerPro Peptide 22 (760366, Perkin Elmer Hopkinton, MA) was added to each well. The reactions were separated on an LC3000 (Caliper Life Sciences) or a LabChip EZReader (Perkin Elmer) in kinetic mode.
(§2) At the conclusion of each assay, the data were exported from the instrument as a .rda file (LC3000) and processed in proprietary software, EZReviewer, which determines the percent of substrate converted to product within a given cycle as (P/P+S)*100 by measuring the amplitude of substrate and product peaks. Cycle time varied with amount of compounds tested between 8 and 12 cycles. Initial velocity (0-3600 s) from each reaction was determined from the slope of a plot of percent conversion at each cycle versus time (seconds). Percent inhibition was determined by dividing the slope of each reaction by the uninhibited control using 100*(1-(x/uninhibited control)). IC50 estimates were obtained by plotting the concentration of inhibitor versus percent inhibition in GraphPad Prism (GraphPad Software, San Diego, CA) using log[inhibitor] versus Response (Variable Slope Model); Y=Min+((Max-Min)/(1+((IC50/x)^Hillslope)))
(§3) • a) [HER2 WT]=12.5 nM, [ATP]=25 μM, [Peptide 22]=1 μM (ATP KMapp˜25 μM) • b) [HER2YVMA]=5 nM, [ATP]=25 μM, [Peptide 22]=1 μM (ATP KMapp˜15 μM) • c) [EGFR WT]=2 nM, [ATP]=1 mM, [Peptide 22]=1 μM (ATP KMapp˜25 μM)

[2] = target: HER2YVMA (Homo sapiens, UniProt P04626, INS775YVMA); experiment: Enzymatic assay HER2YVMA (method b); assay type: biochemical; parameters: purchased Viva biotech, Shanghai, China custom purification; settings: [HER2YVMA]=5 nM, [ATP]=25 μM, [Peptide 22]=1 μM
Description: as §1, §2, §3

[3] = target: T2, EGFR WT (Homo sapiens, UniProt P00533); experiment: Enzymatic assay EGFR WT (method c); assay type: biochemical; settings: [EGFR WT]=2 nM, [ATP]=1 mM, [Peptide 22]=1 μM
T2 construct: purchased Thermo Fisher, Carlsbad, CA ERBB1 PR7295B
T2 sequence (P00533 25-1210): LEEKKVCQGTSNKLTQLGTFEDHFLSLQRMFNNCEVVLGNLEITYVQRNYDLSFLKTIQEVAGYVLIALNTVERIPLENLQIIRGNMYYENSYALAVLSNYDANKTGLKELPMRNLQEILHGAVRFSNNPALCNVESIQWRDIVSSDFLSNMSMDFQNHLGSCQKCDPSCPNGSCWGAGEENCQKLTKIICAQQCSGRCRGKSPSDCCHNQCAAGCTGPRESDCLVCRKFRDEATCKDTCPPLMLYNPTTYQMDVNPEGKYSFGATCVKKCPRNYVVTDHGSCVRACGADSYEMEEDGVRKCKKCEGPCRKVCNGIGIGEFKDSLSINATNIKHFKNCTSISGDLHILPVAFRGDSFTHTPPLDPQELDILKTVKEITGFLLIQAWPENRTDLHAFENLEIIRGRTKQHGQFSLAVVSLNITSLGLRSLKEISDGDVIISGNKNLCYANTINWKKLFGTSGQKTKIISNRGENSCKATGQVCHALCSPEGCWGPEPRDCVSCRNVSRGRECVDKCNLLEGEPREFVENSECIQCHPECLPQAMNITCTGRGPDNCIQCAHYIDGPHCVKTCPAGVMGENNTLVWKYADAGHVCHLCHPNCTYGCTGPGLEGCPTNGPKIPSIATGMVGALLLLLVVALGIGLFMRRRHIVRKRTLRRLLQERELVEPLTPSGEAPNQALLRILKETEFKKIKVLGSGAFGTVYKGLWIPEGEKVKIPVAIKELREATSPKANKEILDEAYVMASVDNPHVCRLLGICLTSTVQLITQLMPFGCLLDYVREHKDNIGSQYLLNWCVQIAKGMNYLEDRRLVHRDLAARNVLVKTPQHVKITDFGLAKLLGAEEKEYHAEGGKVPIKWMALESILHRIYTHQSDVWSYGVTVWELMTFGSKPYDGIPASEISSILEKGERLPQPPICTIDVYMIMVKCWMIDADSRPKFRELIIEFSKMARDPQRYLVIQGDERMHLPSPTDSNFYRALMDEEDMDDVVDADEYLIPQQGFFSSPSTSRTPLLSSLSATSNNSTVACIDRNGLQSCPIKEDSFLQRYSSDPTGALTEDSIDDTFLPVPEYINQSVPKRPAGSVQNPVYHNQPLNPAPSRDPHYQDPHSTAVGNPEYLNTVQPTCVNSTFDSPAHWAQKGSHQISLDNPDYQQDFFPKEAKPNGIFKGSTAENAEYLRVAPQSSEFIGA
Description: as §1, §2, §3

[4] = target: EGFR (Homo sapiens, UniProt P00533); experiment: EGFR signaling (pEGFR Tyr1068/total EGFR MSD) in A431 cells; assay type: cell-based; parameters: endogenous in cells; host or cells: A431, N87; settings: for EC50: A431 cells, read-out: A431 pEGFR EC50; for Selectivity A431 EC50/BT474 EC50: ratio A431 pEGFR EC50 to BT474 pHER2 EC50
EGFR, sequence (P00533 25-1210): as above
Description: (§4) In addition to the engineered cell lines, the following cell lines were used: BT474 (human breast carcinoma), N87 (human gastric carcinoma), NCI-H1781 (human lung adenocarcinoma), and A431 (human epidermoid carcinoma); all cell lines were obtained from the American Type Culture Collection (ATCC, Manassas, VA). NCI-H1781 were grown in complete RPMI 1640 (Life Technologies, Carlsbad, CA) supplemented with 15% fetal bovine serum (FBS, Life Technologies, Carlsbad, CA) and 1% Penicillin-Streptomycin (P/S, Life Technologies, Carlsbad, CA). N87 cells were grown in complete RPMI 1640 supplemented with 10% FBS and 1% P/S. BT474 and A431 cells were grown in DMEM (Life Technologies, Carlsbad, CA) supplemented with 10% FBS and 1% P/S. All cells were maintained and propagated in a humidified 5% CO2 incubator at 37° C.
A431 Cells were plated in 96-well tissue-culture treated plates in full media for 6 h, then starved with media containing 0.1% FBS for overnight. Media was replaced with low serum media (1% FBS) containing compound at 10, 3.3, 1.1, 0.37, 0.12, 0.041, 0.014, 0.005 μM or DMSO control (0.1%). Cells were incubated for 1.5 hr, then stimulated with 100 ng/mL human EGF (PeproTech, Rocky Hill, NJ) for 10 minutes. Cells were washed with cold PBS, and lysed for 30 min on ice in complete MSD lysis buffer (prepared as described in HER2 Signaling Method); lysates were stored at −70° C. until further analysis. EGFR signaling was evaluated using phospho (Tyr 1068)/total EGFR whole cell lysate kit (Meso-Scale Discovery, Gaithersburg, MD). The phospho EGFR signal was normalized to total EGFR for each sample; results are reported as % DMSO control. The normalized data was fitted using a sigmoidal curve analysis program (Graph Pad Prism version 6) with variable Hill slope to determine EC50 values. The results are provided in Table 4, under column titled “A431-pEGFR EC50”.

[5] = target: T3, HER2 wildtype (WT) protein (Homo sapiens, UniProt P04626); experiment: HER2 signaling (pHER2 Tyr1248/total HER2 MSD) in BT474 cells; assay type: cell-based; settings: 1.5 hr compound, 1% FBS
T3 construct: BT474 and N87 cell lines which endogenously overexpress the HER2 wildtype (WT) protein; endogenous in cells; host or cells: BT474, N87
T3 sequence (P04626 23-1255): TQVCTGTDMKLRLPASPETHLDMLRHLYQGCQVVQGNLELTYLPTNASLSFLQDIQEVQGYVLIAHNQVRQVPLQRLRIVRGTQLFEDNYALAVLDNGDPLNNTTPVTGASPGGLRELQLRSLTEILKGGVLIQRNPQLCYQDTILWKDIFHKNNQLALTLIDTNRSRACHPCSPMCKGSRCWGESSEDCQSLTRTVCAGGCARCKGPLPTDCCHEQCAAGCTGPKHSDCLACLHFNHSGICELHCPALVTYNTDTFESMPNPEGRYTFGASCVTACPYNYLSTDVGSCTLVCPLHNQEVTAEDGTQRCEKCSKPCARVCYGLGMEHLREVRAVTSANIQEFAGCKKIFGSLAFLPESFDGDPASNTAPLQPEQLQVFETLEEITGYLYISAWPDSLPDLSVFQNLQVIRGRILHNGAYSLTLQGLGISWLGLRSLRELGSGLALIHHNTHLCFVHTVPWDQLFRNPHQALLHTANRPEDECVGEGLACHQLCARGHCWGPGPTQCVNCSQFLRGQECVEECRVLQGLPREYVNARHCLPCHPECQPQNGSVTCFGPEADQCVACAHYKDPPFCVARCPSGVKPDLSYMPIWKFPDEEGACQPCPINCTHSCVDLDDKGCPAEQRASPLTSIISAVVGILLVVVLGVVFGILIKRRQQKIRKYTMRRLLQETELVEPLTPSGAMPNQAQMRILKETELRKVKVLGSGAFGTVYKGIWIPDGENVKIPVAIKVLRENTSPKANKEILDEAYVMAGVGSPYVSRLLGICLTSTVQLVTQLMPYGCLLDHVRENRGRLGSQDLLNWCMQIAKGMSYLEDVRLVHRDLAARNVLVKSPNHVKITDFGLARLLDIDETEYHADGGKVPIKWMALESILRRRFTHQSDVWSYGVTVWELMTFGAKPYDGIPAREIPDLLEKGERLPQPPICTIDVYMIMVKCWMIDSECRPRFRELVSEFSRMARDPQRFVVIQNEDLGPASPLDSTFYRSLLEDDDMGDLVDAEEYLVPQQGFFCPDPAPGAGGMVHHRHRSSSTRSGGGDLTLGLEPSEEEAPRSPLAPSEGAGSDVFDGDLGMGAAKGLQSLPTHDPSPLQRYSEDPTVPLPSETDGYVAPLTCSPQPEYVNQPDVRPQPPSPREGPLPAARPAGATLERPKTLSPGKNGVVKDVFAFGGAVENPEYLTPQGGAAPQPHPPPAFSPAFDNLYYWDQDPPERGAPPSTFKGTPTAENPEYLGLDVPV
Description: as §4
HER2 signaling was assessed in BT474 and N87 cell lines which endogenously overexpress the HER2 wildtype (WT) protein, in NCI-H1781 cells which endogenously expresses a HER2 mutant protein containing a VC insertion in the kinase domain (HER2VC or G776delinsVC), and in engineered cell lines transduced to express the Her2 mutant protein containing the YVMA insertion (Hek293-HER2YVMA and BEAS2B-HER2YVMA).
BT474, N87, and NCI-H1781 were plated in 96-well tissue-culture treated plates (Corning Costar, Sigma-Aldrich) in full media and incubated overnight. Hek293-HER2YVMA and BEAS2B-HER2YVMA cells were plated in 96-well poly-D-lysine treated plates (BD Bioscience, San Jose, CA). For treatment with test compounds, the media was replaced with corresponding low serum media (1% FBS) containing test compound at 1.1, 0.37, 0.12, 0.041, 0.014, 0.005, 0.0014, 0.0005 μM or DMSO control (0.1%). Cells were incubated with compound for 1.5 hr at 37° C. After compound treatment, the media was removed and cells were lysed for 30 min on ice in complete MSD lysis buffer (prepared using MSD base lysis buffer (Meso-Scale Discovery) supplemented with cOmplete, EDTA-free Protease inhibitor cocktail (Roche), Phosphatase Inhibitor Cocktails 2 and 3 (Sigma-Aldrich), and 1 mM PMSF (Sigma-Aldrich)). Lysates were stored at −70° C. until further analysis.
HER2 signaling was evaluated using phospho (Tyr1248)/total ErbB2 whole cell lysate MSD plates (Meso-Scale Discovery, Gaithersburg, MD). The phospho HER2 signal was normalized to total HER2 for each sample; results are reported as % DMSO control. The normalized data was fitted using a sigmoidal curve analysis program (Graph Pad Prism version 6) with variable Hill slope to determine EC50 values.
The HER2 signaling results are provided in Table 4, under columns titled “BT474-pHER2 EC50”, “N87-pHER2 EC50”, and “NCI-H1781-pHER2 EC50”. Hek293-HER2YVMA ins fall under the heading “HEKYVMA-pHER2 EC50”, Ba/F3 HER2YVMA fall under the heading “Ba/F3 YVMA-pHER2 EC50” and BEAS2B-HER2YVMA fall under the heading “BEAS2B YVMA-pHER2 EC50”.

T1 sequence (P04626 23-1255): as above

IC50 [1] [nM]	IC50 [2] [nM]	IC50 [3] [nM]	EC50 [4] [nM]	Selectivity A431 EC50/BT474 EC50 [4]	EC50 [5] [nM]	Structure (SMILES)
< 100	100 to 1000	> 10000	< 100	C (C: ≥ 10 and < 20)	< 100	Cc1ccc(Oc2ccc(Nc3ncnc4sc5c(c34)CCN(C(=O)/C=C/CN3CCOC(C)(C)C3)C5)cc2C)cn1 [Compound 28]
< 100	100 to 1000	> 10000	100 to 1000	A (A: ≥100)	< 100	Cc1ccc(Oc2ccc(Nc3ncnc4sc5c(c34)CCN(C(=O)/C=C/CN3CCOC4(CCC4)C3)C5)cc2C)cn1 [Compound 30]
< 100	100 to 1000	> 10000	100 to 1000	D (D: ≥ 5 and < 10)	< 100	Cc1ccc(Oc2ccc(Nc3ncnc4sc5c(c34)CCN(C(=O)/C=C/CN3CCOCC34CCC4)C5)cc2C)cn1 [Compound 31]
< 100	100 to 1000	> 10000	100 to 1000	B (B: ≥ 20 and < 100)	< 100	Cc1ccc(Oc2ccc(Nc3ncnc4sc5c(c34)CCN(C(=O)/C=C/CN3CCOC[C@@H]3C)C5)cc2C)cn1 [Compound 32]
100 to 1000	100 to 1000	> 10000	–	–	–	Cc1cc(Nc2ncnc3sc4c(c23)CCN(C(=O)/C=C/CN2CCOC[C@@H]2C)C4)ccc1Oc1ccc2ncnn2c1 [Compound 79]

The next lines start with the molecule.

Structure (SMILES)	IC50 [1] [nM]	IC50 [2] [nM]	IC50 [3] [nM]	EC50 [4] [nM]	Selectivity A431 EC50/BT474 EC50 [4]	EC50 [5] [nM]
C=CC(=O)N1CCc2c(sc3ncnc(Nc4ccc(Oc5ccc6ncnn6c5)c(C)c4)c23)C1 [Compound 2, 1-(4-((4-([1,2,4]triazolo[1,5-a]pyridin-6-yloxy)-3-methylphenyl)amino)-5,8-dihydropyrido[4′,3′:4,5]thieno[2,3-d]pyrimidin-7(6H)-yl)prop-2-en-1-one]	< 100	< 100	1000 to 10000	–	–	–
Cc1ccc(Oc2ccc(Nc3ncnc4sc5c(c34)CCN(C(=O)/C=C/CN3CC4CCC(C4)C3)C5)cc2C)cn1 [Compound 27]	–	–	1000 to 10000	< 100	B (B: ≥ 20 and < 100)	–
Cc1ccc(Oc2ccc(Nc3ncnc4sc5c(c34)CCN(C(=O)/C=C/CN3CCOCC3(C)C)C5)cc2C)cn1 [Compound 29]	< 100	< 100	> 10000	< 100	C (C: ≥ 10 and < 20)	< 100
Cc1ccc(Oc2ccc(Nc3ncnc4sc5c(c34)CCN(C(=O)/C=C/CN3CC4CC(C4)C3)C5)cc2C)cn1 [Compound 36]	< 100	< 100	1000 to 10000	< 100	D (D: ≥ 5 and < 10)	< 100
C[C@H]1COCCN1C/C=C/C(=O)N1CCc2c(sc3ncnc(Nc4ccc(Oc5ccc6ncnn6c5)c(Cl)c4)c23)C1 [Compound 90]	100 to 1000	100 to 1000	> 10000	–	–	–
Cc1ccc(Oc2ccc(Nc3ncnc4sc5c(c34)CCN(C(=O)/C=C/CN3CCN4CCC3CC4)C5)cc2C)cn1 [Compound 116]	1000 to 10000	1000 to 10000	> 10000	–	–	–
